In patent publication US11850449B2, “Irradiation method and system” (priority 2017, dated 2023):
Where two headings read alike, the source gives them in different places.

How the values were obtained:
liver tumours = conditions: reported [26, 27, 39]; cited from earlier work
[1] = in vivo; cited from earlier work
[2] = value used in Example 2 dose relation; cited from earlier work
normal tissues = conditions: reported; cited from earlier work
brain tumour cells = brain tumour cells / brain tumours; reported; cited from earlier work
[3] = tested on: T98G (JCRB9041, human glioblastoma multiforme) cell lines; assay: Example 3 T98G cell proliferation (Resazurin/alamarBlue) after carbon or helium ion beam irradiation with neutron capture agents; type: cell-based; conditions: 500 μM; for Cell proliferation: 24 h incubation prior to irradiation, up to 168 hours, vs flasks without compound; for radiosensitisation: carbon and helium ion beams
Procedure: The approach of the aforementioned embodiments was tested experimentally. A series of proof-of concept experiments were performed at Japan's HIMAC facility, to quantify the effective increase in biological dose which can be achieved in vitro. Cultured T98-G cancer cells adhered to the inner surface of T25 cell culture flasks were irradiated in carbon and helium ion beams, with and without the presence of realistic concentrations of neutron capture agents.
Three frozen vials of T98G (JCRB9041, human glioblastoma multiforme) cell lines were purchased from the National Institutes of Biomedical Innovation, Health and Nutrition, JCRB Cell Bank and used throughout the experiments.
Prior to the start of the experiments, the cells were revived and passaged twice prior to seeding 160 T25 flasks, with 5 mL of complete growth medium (DMEM+10% FBS). Flasks were incubated at 37±1° C. in an atmosphere of 5±1% CO2.
The experiments utilised ^12C and ^4He beams with 60 mm Spread Out Bragg Peak (SOBP60) spectra, and an approximate dose rate of 1 Gy/min. Cell viability was measured as a function of ion beam dose in cultured T98-G human glioblastoma cells, with and without the presence of two neutron capture agents, ^10B enriched 4-borono-L-phenylalanine (^10B-BPA) and 2,2′,2″-(10-(4-(((triphenylphosphonio)methyl)benzyl)-1,4,7,10-tetraazacyclododecane-1,4,7-triyl)triacetatogadolinium(III) trifluoroacetate (157Gd-DOTA-TPP salt complex).
A set of 300×300×10 mm^3 PMMA slabs were used in conjunction with a PMMA receptacle for holding two flasks. With this arrangement, the flasks containing the cell cultures were positioned inside a cubic 300×300×300 mm^3 PMMA phantom in a plane normal to the incident beam, at a depth corresponding to the midpoint of the SOBP60 as illustrated schematically in FIG. 13. The neutron fluence predicted via Monte Carlo simulation in Example 2 is overlayed on this figure for illustrative purposes. The ion beams were ^12C and ^4He beams with dimensions of 100×100 mm^2 (width×height) and SOBP60 energy spectra with mean energies of 290 MeV/u and 150 MeV/u, respectively (corresponding to SOBP depth ranges of approximately 8 to 14 cm in PMMA).
The irradiation campaign was conducted on four consecutive nights (carbon ion beam irradiations were conducted on the first and third nights, while helium ion beam irradiations were performed on the second and fourth night) at the HIMAC biological beamline. Forty flasks were irradiated during each night, at 80% to 90% confluence (corresponding to ˜3.75×10^5 cells per flask). Twenty-four hours prior to each irradiation, 10 flasks were incubated with 500 μM of ^10B-BPA, while a second set of 10 flasks were incubated with 500 μM of ^157Gd-DOTA-TPP salt complex. The remaining 20 flasks were used as control.
On the night of irradiation, the beam was calibrated for dose rate and dose-depth deposition and the dose-rate at the centre of the Bragg peak (corresponding to the location of the cells) was measured with an ionisation chamber. Immediately prior to irradiation, flasks were filled with a complete DMEM media (˜30 mL per flask). Flasks were irradiated in pairs, with flasks containing the neutron capture agents irradiated together, followed by corresponding control flasks (containing no neutron capture agent). Ten different dose values were used with each ion beam: 0, 0.9, 1.8, 2.3, 2.7, 3.2, 3.6, 4.1, 4.6, and 7.3 Gy for helium, and 0, 0.6, 1.3, 1.6, 1.9, 2.2, 2.5, 2.8, 3.1 and 5 Gy for carbon.
After irradiation, the medium was aseptically removed from the irradiated flasks. Cells were washed with 5 mL of DPBS which was removed and discarded. Cells were then trypsinised, detached from the flasks and resuspended in completed growth medium. Cell count and viability was recorded.
Sixteen 96-well plates were populated each night, each well containing approximately 375 cells, and each set of three wells corresponding to one flask. […]

liver = conditions: normal liver; reported [26, 27, 39]; cited from earlier work
[4] = in vivo, cited from earlier work
GBM (in vitro) = conditions: cited from earlier work
[5] = Example 2 Monte Carlo simulation and treatment plan, neutron capture dose enhancement in PMMA target; conditions: based on photon activated therapy studies with the same agent, corrected for expected Auger electron production
Procedure: In a further example, a similar set of simulations was conducted. Significance was arbitrarily defined as an average 10% increase in photon-equivalent dose within a tumour resulting from the administration of a non-toxic bolus of neutron-capture agent (though it is envisaged that the method of this embodiment can be used with any desired dose increase factor). To do so, the concentration of neutron capture agent required to provide a 10% increase in effective photon-equivalent dose is determined for a simple simulated therapeutic proton/heavy ion treatment plan, and this is compared with concentrations reported in the literature.
The first step is to evaluate the neutron fluence resulting from pencil-beam irradiation of a point within a target volume. […] Dose and neutron fluence distributions were recorded for each simulation; corresponding distributions at energies in between these were also estimated by interpolating between the distributions obtained at these energies. […] The primary particle fluence at each energy was then weighted such that an approximately flat biological effective dose (BED) was delivered to a defined treatment volume by the ion beam; two 50 mm cubic volumes were evaluated, one centred at a depth of 125 mm and a second centred at a depth of 165 mm. […]

[6] = tested on: T98G (glioblastoma, in vitro); conditions: cited from earlier work
[7] = in vivo; cited from earlier work; remark: listed apart in the source
glioblastoma cell nuclei = conditions: cited from earlier work
[8] = rat, in vivo; cited from earlier work

In the case of N[C@@H](Cc1ccc([10B](O)O)cc1)C(=O)O [BPA, ^10B-4-borono-L-phenylalanine], the “CBE, tumour” value (liver tumours) is listed as 9.94, the “concentration ratio (tumour:normal tissue)” value [1] is listed as 2.8 and the “compound biological effectiveness CBE” value [2] is listed as 3.8. For the same molecule, the CBE (normal tissues) was 0.9-1.3, the CBE (brain tumour cells) was 3.6-3.8 and the Cell proliferation ([3]; carbon beam 0 to 5 Gy) was “substantially reduced”. The Cell proliferation ([3]; helium beam) was “substantially reduced”, the radiosensitisation [3] was “clear and substantial radiosensitisation” and the “CBE, liver” value (liver) was 4.25. The “Concentration (PPM)” value ([4]; iv) was 30 ± 12 PPM, the “Concentration ratio (tumour to healthy tissue)” value ([4]; iv) was 5:1 ^ and the “highest BPA concentration reported in the literature” value [4] was 125 ppm. The “tumour to healthy tissue concentration ratio” value [4] was 5:1-8:1.

In the case of O=C([O-])CN1CCN(CC(=O)[O-])CCN(CC(=O)O)CCN(CC(=O)[O-])CC1.[Gd+3] [Gd-DOTA], the “Concentration (ppM)” value (GBM (in vitro)) is listed as 140 (1 h) ppM and the “accumulation within the cell nucleus” value (GBM (in vitro)) is listed as “neither accumulates to significant concentration”.

For O=C([O-])CN(CCN(CC(=O)[O-])CC(=O)O)CCN(CC(=O)[O-])CC(=O)O.[Gd+3] [Gd-DTPA], the “accumulation within the cell nucleus” value (GBM (in vitro); reported [40]) is listed as “neither accumulates to significant concentration”.

For O=C([O-])C(F)(F)F.O=C([O-])CN1CCN(CC(=O)[O-])CCN(Cc2ccc(C[P+](c3ccccc3)(c3ccccc3)c3ccccc3)cc2)CCN(CC(=O)[O-])CC1.[Gd+3] [^157Gd-DOTA-TPP salt complex], the Cell proliferation ([3]; carbon beam 0 to 5 Gy) was “substantially reduced”, the Cell proliferation ([3]; helium beam) was “substantially reduced” and the radiosensitisation [3] was “clear and substantial radiosensitisation”. For the same molecule, the “compound biological effectiveness CBE” value [5] was “≈ 40”.

For [Gd] [gadolinium], the “values previously published, concentration” value [6] is listed as “up to 3000 ppm”.

In the case of CC(=O)[O-].CC(=O)[O-].CCc1c(CC)c2cc3nc(cnc4cc(OCCOCCOCCOC)c(OCCOCCOCCOC)cc4ncc4nc(cc1[n-]2)C(CCCO)=C4C)C(C)=C3CCCO.O.[Gd+3] [motexafin-gadolinium], the “tumour to healthy tissue uptake ratio” value [7] is listed as 70:1, the “prolonged retention of gadolinium in vitro” value (glioblastoma cell nuclei) is listed as “up to 2 months” and the “uptake in glioblastoma cell nuclei” value (glioblastoma cell nuclei) is listed as 90%.

For boron, the “values previously published, tumour concentration” value [8] is listed as “up to 231 ppm”.

In the case of “sodium mercaptoundecahydro-closo-dodecaborate [BSH]”, the “CBE, tumour” value (liver tumours) is given as 4.22, the “concentration ratio (tumour:normal tissue)” value [1] is given as 0.3 and the “CBE, liver” value (liver) is given as 0.94. The “tumour to healthy tissue concentration ratio” value [4] was 1.2-3.5.
